Assay results reported in patent publication US20100016156A1, “Pesticidal Mixtures” (BASF SE, priority 2007, published 2010).

Columns and labels:
[1] = system: Blumeria graminis f. sp. tritici; assay: Control of powdery mildew on wheat (protective spray, greenhouse); type: in vivo; settings: 7 days after inoculation, untreated 70% infection
Description: Preparation: The spray solutions were prepared in several steps:
A stock solution was prepared: a mixture of acetone and/or DMSO and the wetting agent/emulsifier Uniperol, which is based on ethoxylated alkylphenoles, in a relation (volume) solvent-emulsifier of 99 to 1 was added to 25 mg of the compound to give a total of 10 ml. Water was then added to total volume of 100 ml.
This stock solution was diluted with the described solvent-emulsifier-water mixture to the given concentration.
The first fully developed leaves of pot grown wheat were sprayed to run-off with an aqueous suspension, containing the concentration of active ingredient or their mixture mentioned in the table below. […] After cultivation in the greenhouse for 7 days at 22-26° C. and a relative humidity between 60 to 90% the extent of fungal attack on the leaves was visually assessed as % diseased leaf area.
The visually determined percentages of infected leaf areas were converted into efficacies in % of the untreated control:
The efficacy (E) is calculated as follows using Abbot's formula: […]
The expected efficacies of active compound combinations were determined using Colby's formula (Colby, S. R. “Calculating synergistic and antagonistic responses of herbicide combinations”, Weeds, 15, 20-22, 1967) and compared with the observed efficacies. […]

Pyrenophora teres = assay: Control of net blotch on barley (protective spray, greenhouse); type: in vivo, Pyrenophora (syn. Drechslera) teres; settings: 6 days after inoculation, untreated 70% infection
Description: Preparation: The spray solutions were prepared in several steps: A stock solution was prepared: a mixture of acetone and/or DMSO and the wetting agent/emulsifier Uniperol, which is based on ethoxylated alkylphenoles, in a relation (volume) solvent-emulsifier of 99 to 1 was added to 25 mg of the compound to give a total of 10 ml. Water was then added to total volume of 100 ml. This stock solution was diluted with the described solvent-emulsifier-water mixture to the given concentration. The first fully developed leaves of pot grown barley plants were sprayed to run-off with an aqueous suspension, containing the concentration of active ingredient or their mentioned in the table below. The next day the treated plants were inoculated with an aqueous spore suspension of Pyrenophora (syn. Drechslera) teres. Then the trial plants were immediately transferred to a humid chamber in the greenhouse. After 6 days of cultivation at 20-24° C. and a relative humidity close to 70%, the extent of fungal attack on the leaves was visually assessed as % leaf area. Evaluation was carried out analogously to example 1.

## CN/C(=N\[N+](=O)[O-])NCc1cnc(Cl)s1 [Clothianidine, (E)-1-(2-chloro-1,3-thiazol-5-ylmethyl)-3-methyl-2-nitroguanidine]
[1]; 0.25 ppm in spray liquor
  Efficacy in % of the untreated control: 0%
Pyrenophora teres; 4 ppm in spray liquor
  Efficacy in % of the untreated control: 0%
Pyrenophora teres; 16 ppm in spray liquor
  Efficacy in % of the untreated control: 0%

## CO/N=C(/C1=NOCCO1)c1ccccc1Oc1ncnc(Oc2ccccc2Cl)c1F [Fluoxastrobin, (E)-{2-[6-(2-chlorophenoxy)-5-fluoropyrimidin-4-yloxy]phenyl}(5,6-dihydro-1,4,2-dioxazin-3-yl)methanone O-methyloxime]
[1]; 0.063 ppm in spray liquor
  Efficacy in % of the untreated control: 0%
Pyrenophora teres; 0.25 ppm in spray liquor
  Efficacy in % of the untreated control: 0%
